Data from patent publication US20060286139A1, “Polymeric drug release system for medical devices” (priority 2003, published 2006).

Experiment: Drug elution from dual-coated stents (17β-estradiol in PEP94 bottom layer, dexamethasone in PEP90 top layer) into aqueous release medium, HPLC analysis
Assay type: physicochemical
Conditions: for Percentage Released: bottom layer PEP94, aqueous release medium 37° C.; for Total Microgrammes Released: bottom layer PEP94, loading approx 147 μg, aqueous release medium 37° C.
Experimental: This example describes the preparation and elution of stents comprising 17β-estradiol and dexamethasone each contained within a specific ratio of PVB/PnVPA
A coating solution was prepared made up of PEP94 and 17β-estradiol in a blend of chloroform and acetone (80:20 by weight), so that in terms of total solids 25% was 17β-estradiol, 75% polymer.
A second coating solution was prepared made of PEP 90 and dexamethasone in a mixture of chloroform and acetone (80:20 by weight), so that in terms of total solids 25% was dexamethasone, 75% polymer.
The stents were weighed, spray coated in a ratio of 3:1 (estradiol: dexamethasone) with the respective formulations such that the bottom layer comprised PEP94 with 17β-estradiol and the top layer PEP90 with dexamethasone. The stents were then dried overnight at 40° C. under vacuum.
Upon weighing the average coating weight of the stents was 811 μg yielding drug loadings of approx 147 μg±17 μg for 17β-estradiol and 57 μg±16 μg for dexamethasone.
Each stent was placed on a hook and suspended in a vial containing 8 ml of an aqueous release medium with a 5 mm magnetic flea. The vials were placed on a multipoint stirrer set at 1000 rpm and incubated at 37° C. After a given time interval (ranging from 1 hour to several days), the stents were transferred to fresh aliquots of release medium and replaced on the stirrer to resume agitation. The solution containing dexamethasone/17β-estradiol was set aside for analysis.
Analysis of the samples was carried out using HPLC (Agilent 1100 series).

Percentage Released (time 1 hour): 5.1%
Percentage Released (time 7 hours): 10.5%
Percentage Released (time 24 hours): 17.1%
Total Microgrammes Released (time 1 hour): 7.5 µg
Total Microgrammes Released (time 7 hours): 15.5 µg
Total Microgrammes Released (time 24 hours): 25.1 µg
SMILES: C[C@]12CC[C@@H]3c4ccc(O)cc4CC[C@H]3[C@@H]1CC[C@@H]2O [17β-estradiol]
